Measured values from USRE39591E1, “6-O-substituted ketolides having antibacterial activity” (Abbott Laboratories, priority 1996, dated 2007).
Converted amounts (≈) assume the structure as drawn.

System: up to 32 different microorganisms
Experiment: in vitro antibacterial activity (MIC), agar dilution on Brain Heart Infusion (BHI) agar with Steers replicator
Format: cell-based
Settings: unit assumed
Protocol: Representative compounds of the present invention were assayed in vitro for antibacterial activity as follows: Twelve petri dishes containing successive aqueous dilutions of the test compound mixed with 10 mL of sterilized Brain Heart Infusion (BHI) agar (Difco 0148-01-5) were prepared. Each plate was inoculated with 1:100 (or 1:10 for slow-growing strains, such as Micrococcus and Streptococcus) dilutions of up to 32 different microorganisms, using a Steers replicator block. The inoculated plates were incubated at 35°-37° C. for 20 to 24 hours. In addition, a control plate, using BHI agar containing no test compound, was prepared and incubated at the beginning and end of each test.
An additional plate containing a compound having known susceptibility patterns for the organisms being tested and belonging to the same antibiotic class as the test compound was also prepared and incubated as a further control, as well as to provide test-to-test comparability. Erythromycin A was used for this purpose.
After incubation, each plate was visually inspected. The minimum inhibitory concentration (MIC) was defined as the lowest concentration of drug yielding no growth, a slight haze, or sparsely isolated colonies on the inoculum spot as compared to the growth control.

[1] = Candida albicans CCH 442 (code TT)
[2] = Enterococcus faecism ATCC 8043 (code II)
[3] = Escherichia coli DC-2 (code SS)
[4] = Escherichia coli JUHL (code QQ)
[5] = Haemophilis influenzae DILL AMP R (code WW)
[6] = Micrococcus luteus ATCC 4698 (code PP)
[7] = Micrococcus luteus ATCC 9341 (code OO)
[8] = Mycobacterium smegmatis ATCC 114 (code UU)
[9] = Nocardia Asteroides ATCC9970 (code VV)
[10] = Staphylococcus aureus 1775 (code GG)
[11] = Staphylococcus aureus A5177 (code BB)
[12] = Staphylococcus aureus A-5278 (code CC)
[13] = Staphylococcus aureus ATCC 6538P (code AA)
[14] = Staphylococcus aureus CMX 553 (code FF)
[15] = Staphylococcus aureus CMX 642A (code DD)
[16] = Staphylococcus aureus NCTC10649M (code EE)
[17] = Staphylococcus epidermidis 3519 (code HH)
[18] = Streptococcus Pneumonia 5649 (code ZZA)
[19] = Streptococcus Pneumonia 5979 (code ZZ)
[20] = Streptococcus Pneumonia ATCC6303 (code XX)
[21] = Streptococcus Pneumonia GYR 1171 (code YY)
[22] = Streptococcus agalactiae CMX 508 (code KK)
[23] = Streptococcus bovis A-5169 (code JJ)
[24] = Streptococcus pyogenes 930 (code MM)
[25] = Streptococcus pyogenes EES61 (code LL)
[26] = Streptococcus pyogenes PIU 2548 (code NN)

SMILES | MIC [1] | MIC [2] | MIC [3] | MIC [4] | MIC (Escherichia coli SS (code RR)) | MIC [5] | MIC [6] | MIC [7] | MIC [9] | MIC [10] | MIC [11] | MIC [12] | MIC [13] | MIC [14] | MIC [15] | MIC [16] | MIC [17] | MIC [18] | MIC [19] | MIC [20] | also measured
CC[C@H]1OC(=O)[C@H](C)C(=O)[C@H](C)[C@@H](O[C@@H]2O[C@H](C)C[C@H](N(C)C)[C@H]2O)[C@@](C)(OCCNCCc2ccccc2)C[C@@H](C)C(=O)[C@H](C)[C@@H](O)[C@]1(C)O [Example 10] | > 100 µg/mL | 6.2 µg/mL (≈ 8.6 µM) | > 100 µg/mL | > 100 µg/mL | 1.56 µg/mL (≈ 2.16 µM) | 64 µg/mL (≈ 88.8 µM) | 1.56 µg/mL (≈ 2.16 µM) | 0.2 µg/mL (≈ 0.277 µM) | 1.56 µg/mL (≈ 2.16 µM) | > 100 µg/mL | 6.2 µg/mL (≈ 8.6 µM) | > 100 µg/mL | 6.2 µg/mL (≈ 8.6 µM) | 6.2 µg/mL (≈ 8.6 µM) | 6.2 µg/mL (≈ 8.6 µM) | 6.2 µg/mL (≈ 8.6 µM) | 6.2 µg/mL (≈ 8.6 µM) | 4 µg/mL (≈ 5.55 µM) | > 128 µg/mL | 2 µg/mL (≈ 2.77 µM) | MIC [8]: 12.5 µg/mL (≈ 17.3 µM); MIC [21]: 2 µg/mL (≈ 2.77 µM); MIC [22]: 1.56 µg/mL (≈ 2.16 µM); MIC [23]: 0.2 µg/mL (≈ 0.277 µM); MIC [24]: > 100 µg/mL; MIC [25]: 0.39 µg/mL (≈ 0.541 µM); MIC [26]: 1.56 µg/mL (≈ 2.16 µM)
CC[C@H]1OC(=O)[C@H](C)C(=O)[C@H](C)[C@@H](O[C@@H]2O[C@H](C)C[C@H](N(C)C)[C@H]2O)[C@@](C)(OCCNCc2ccncc2)C[C@@H](C)C(=O)[C@H](C)[C@@H](O)[C@]1(C)O [Example 12, Compound of Formula (VIII): X is O, R is —CH2CH2NHCH2-(4-pyridyl)] | > 100 µg/mL | 1.56 µg/mL | > 100 µg/mL | > 100 µg/mL | 0.39 µg/mL | 32 µg/mL | 0.78 µg/mL | 0.39 µg/mL | 0.39 µg/mL | > 100 µg/mL | 3.1 µg/mL | > 100 µg/mL | 6.2 µg/mL | 6.2 µg/mL | 6.2 µg/mL | 6.2 µg/mL | 12.5 µg/mL | 2 µg/mL | > 128 µg/mL | 0.25 µg/mL | MIC [22]: 0.78 µg/mL; MIC [23]: 0.2 µg/mL; MIC [24]: > 100 µg/mL; MIC [25]: 0.39 µg/mL; MIC [26]: 1.56 µg/mL
CC[C@H]1OC(=O)[C@H](C)C(=O)[C@H](C)[C@@H](O[C@@H]2O[C@H](C)C[C@H](N(C)C)[C@H]2O)[C@@](C)(OCC=Cc2ccccc2)C[C@@H](C)C(=O)[C@H](C)[C@@H](O)[C@]1(C)O [Example 14, Compound of Formula (VIII): X is O, R is —CH2CH═CH-Phenyl] | > 100 µg/mL | 0.78 µg/mL | > 100 µg/mL | > 100 µg/mL | 6.2 µg/mL | 128 µg/mL | 0.78 µg/mL | 0.39 µg/mL | 3.1 µg/mL | > 100 µg/mL | 1.56 µg/mL | > 100 µg/mL | 1.56 µg/mL | 3.1 µg/mL | 3.1 µg/mL | 3.1 µg/mL | 1.56 µg/mL | 2 µg/mL | 128 µg/mL | 1 µg/mL | MIC [8]: 3.1 µg/mL; MIC [21]: 0.25 µg/mL; MIC [22]: 0.2 µg/mL; MIC [23]: 0.2 µg/mL; MIC [24]: 50 µg/mL; MIC [25]: 0.39 µg/mL; MIC [26]: 0.78 µg/mL
CC[C@H]1OC(=O)[C@H](C)C(=O)[C@H](C)[C@@H](O[C@@H]2O[C@H](C)C[C@H](N(C)C)[C@H]2O)[C@@](C)(OCCCc2ccccc2)C[C@@H](C)C(=O)[C@H](C)[C@@H](O)[C@]1(C)O [Example 15, Compound of Formula (VIII): X is O, R is —CH2CH2CH2-Phenyl] | > 100 µg/mL | 1.56 µg/mL | > 100 µg/mL | > 100 µg/mL | 6.2 µg/mL | > 64 µg/mL | 3.1 µg/mL | 0.78 µg/mL | 1.56 µg/mL | > 100 µg/mL | 6.2 µg/mL | > 100 µg/mL | 6.2 µg/mL | 6.2 µg/mL | 6.2 µg/mL | 6.2 µg/mL | 6.2 µg/mL | 1 µg/mL | 32 µg/mL | 1 µg/mL | MIC [8]: 6.2 µg/mL; MIC [21]: 1 µg/mL; MIC [22]: 0.2 µg/mL; MIC [23]: 0.2 µg/mL; MIC [24]: 100 µg/mL; MIC [25]: 0.39 µg/mL; MIC [26]: 3.1 µg/mL
